{
  "source": "patent US10842851B2",
  "about": "“Relaxin for treating patients afflicted of impaired glucose tolerance” (Immundiagnostik AG, priority 2012, dated 2020)",
  "key": {"[1]": {"system": "patients having type II diabetes or impaired glucose tolerance", "test": "HOMA-index in human patients under i.v. H2 relaxin", "format": "in vivo", "details": "i.v. over 16 hrs", "description": "In a study approved by the local ethical committee (Charité, Berlin, Germany) twelve patients (n=12) having type II diabetes or impaired glucose tolerance received intravenous synthetic H2 relaxin over a period of 16 hrs followed by a 24-hr follow-up. The anti-diabetic treatment of those patients was not varied. The improved HOMA-2 model used was in the present example because it reflects better human physiology. A HOMA of >2 indicates a potential insulin resistance; a HOMA of >2.5 beginning insulin resistance and a HOMA>5.0 is an average value of insulin resistance in untreated patients with manifest type-2 diabetes.\nOf those twelve patients in this study two patients received sequential treatment for 8 hours each with dosages equivalent to 10 and 30 μg/kg of subject body weight per day, 6 patients received sequential treatment with 240 and 480 μg/kg of subject body weight per day, and another 4 patients received a constant infusion of 960 μg/kg of subject body weight per day. This was completed by follow-up determinations of glucose and insulin levels in serum 24 hours post termination of the i.v. relaxin administration."}, "[2]": {"system": "Zucker Diabetic Fatty rats", "test": "HOMA-index in ZDF rats under sc relaxin", "format": "in vivo, rat", "details": "10-week old male ZDF rats, sc 500 μg/kg per day, within the 48-hour period", "description": "The homeostatic model assessment (HOMA=Insulin (μU/mi)×Glucose (mmol/l)/22.5) allows a quantification of insulin resistance and beta-cell function on the basis of mathematical equations describing glucose regulation as a feedback loop (see Matthews D R at al. Diabetologia 1985; 28(7): 412-9); Turner R C et al, Metabolism 1985; 28 (11): 1086-96). In order to assess the effects of relaxin on a diabetic metabolism we determined the HOMA of 10-week old male Zucker Diabetic Fatty rats (#25) pre-, during and post subcutanous administration of porcine relaxin (500 μg/kg rat per day). Thus, we determined the glucose and insulin levels in serum of 25 ZDF rats prior and 48 hours after sc administration of porcine relaxin. This was completed by follow-up determinations of glucose and insulin concentrations in serum 48 hours post the termination of the administration of porcine relaxin."}, "[3]": {"details": "cited from earlier work"}, "[4]": {"details": "over the entire dose range, previous pilot study (Dschietzig et al. 2009); cited from earlier work"}, "[5]": {"system": "rat insulinoma cells (INS-1 cells)", "test": "Insulin secretion of INS-1 cells under sustained glucose concentrations (rat insulin ELISA)", "format": "cell-based", "description": "In a further study we examined whether porcine relaxin has any effect on insulin expression and/or secretory capacity of pancreatic beta-cells. 2.5×10^5 rat insulinoma cells (INS-1 cells; see Mergler S et al, in Cellular Signalling (2008), doi: 10.1016/j.cellsig.2008.08.015) were plated in a 24-well plate and grown for three days in […] medium with supplements (Moore G. E. et. al., Culture of Normal Human Leukoctyes.” JAMA, v. 199, 519-524 (1967). On the day of the experiment, the medium was removed, and the INS-1 cells were washed three times and then preincubated for 30 min in KRB (Krebs-Ringer buffer: 115 mM NaCl, 5.9 mM KCl, 1.2 mM MgCl2, 1.2 mM NaH2PO4, 1.2 mM Na2PO4, 2.5 mM CaCl2, 25 mM NaHCO3, pH 7.4) comprising 0.5% BSA and 3.3 mM glucose. Cells were washed again with phosphate buffered saline (PBS: 137 mM NaCl, 2.7 mM KCl, 12 mM phosphate, pH 7.4) and incubated with different physiological and pathological glucose concentrations (2.8, 5.6, 11.2, 16.7, 33.2 mmol/L) for 48 hrs. After another washing, the amounts of insulin secreted by the INS-1 cells into the supernatant over another 48 hrs under the very same glucose conditions were determined using a rat insulin ELISA kit (units: ng/dl) (Immundiagnostik AG, Bensheim, Del.—Article No. KA80INSRT1). […]"}, "[6]": {"test": "Effect of relaxin on glucose levels in blood", "details": "in vivo"}},
  "data": [
    {"substance": "human relaxin-2 (H2 relaxin)", "values": [
      {"measurement": "homeostatic model assessment (HOMA) in each diabetic patient (FIG. 2A)", "setting": "[1]; 10 to 960 μg/kg per day, diabetic patients", "result": "improved"},
      {"measurement": "homeostatic model assessment (HOMA) in non-diabetic subjects", "setting": "[1]; subjects having an initial HOMA of less than 2.0", "result": "no or little impact"}
    ]},
    {"substance": "porcine relaxin-1 [porcine RLX]", "values": [
      {"measurement": "HOMA value of each animal (FIG. 1A)", "setting": "[2]", "result": "reduced HOMA value"}
    ]},
    {"substance": "relaxin", "values": [
      {"measurement": "half-life in vivo", "setting": "[3]", "result": "about two"},
      {"measurement": "clinically adverse effects", "setting": "[4]", "result": "no clinically adverse effects were observed"},
      {"measurement": "insulin secretion (as determined in cell supernatants)", "setting": "[5]; 10 nM porcine relaxin-1, baseline and high-glucose conditions, secretion period of 48 hours, INS-1 cells", "result": "increased insulin secretion"},
      {"measurement": "high glucose-induced down-regulation of insulin expression and/or secretory capacity", "setting": "[5]; 10 nmol/L porcine relaxin-1, cultured rat INS-1 cells, n=6, P<0.05 vs. control", "result": "efficient in preventing"},
      {"measurement": "direct effect on glucose levels in blood", "setting": "[6]", "result": "not found any direct effect"}
    ]}
  ]
}
